Assay results taken from patent US5003044A, “Peptide inhibitors of motor neuron attachment to s-laminin” (Washington University, priority 1989, dated 1991).
No end group written: not given here.

Key:
[1] = tested on: adhesion of ciliary neurons to pET-RK36 s-laminin fragment; conditions: for Inhibition of neuronal adhesion to pET-RK36 / s-laminin (in words): concentration not given
[2] = tested on: ciliary ganglion neurons; test: Cell attachment assay on immobilized substrata, ciliary ganglion neurons; format: cell-based, chick
Description: (§1) Substrates were immobilized to tissue culture dishes as described by Lagenaur and Lemmon, Proc. Natl. Acad. Sci. USA 84, 7753-7757 (1987). Briefly, nitrocellulose (BA85; Schleicher and Schuell, Keene, N.H.) was dissolved in methanol (1 cm^2 /ml), applied to tissue culture wells (90 µl per 16 mm diameter well) and allowed to dry. Drops (1.5-3 μl) of substrates in solution were applied and allowed to bind for 20 min. after which the drops were aspirated. Nonspecific binding sites on the nitrocellulose were then blocked by incubating wells with the following series of solutions: 10 mg/ml bovine serum albumin (BSA; Sigma) in PBS for ~1 min; 30 mg/ml BSA in PBS for 2-3 hr; Earles' Minimum Essential Medium (MEM) containing 2% fetal bovine serum and 25 mM HEPES, pH 7.4, for 5 min; PBS, twice briefly; and Earles' MEM containing 1 mg/ml BSA and 25 mM HEPES, pH 7.4, for 30 min at 37° C. in a humidified chamber containing 7% CO2. At this point, neurons were added, with or without synthetic peptides, and incubated for 2 hr at 37° C. Finally, the wells were washed twice with PBS pre-warmed to 37° and adherent cells were fixed in place with 2% paraformaldehyde and 2% glutaraldehyde in PBS.
Neurons were dissociated from chick ciliary ganglia as previously described by Nishi and Berg, Proc. Natl. Acad. Sci. USA 74, 5171-5175 (1977);
Covault et al., J. Cell Biol. 105, 2479-2488 (1987). Each well received ~5000 neurons, which corresponds to ~1 E8 ganglia, ~1.5 E10 ganglia, and ~2 E13 ganglia (E8, E10 and E13 are stages of development of the embryonic chick) [neuronal death is occurring over this time course; Landmessen and Pilar, J. Physiol. 241, 715-736 (1974)]. Chick dorsal root ganglia and optic tecta were dissociated in the same manner; each well received cells from 4-5 dorsal root ganglia or 0.25 optic tecta. For B35 and B104 cell lines, each well received 20,000 cells. For PC12 cells, each well received 5000 cells. In some tests, PC12 cells were grown with 50 ng/ml nerve growth factor (NGF) for 3-6 days before use. All cells were suspended in Earles' MEM containing 1 mg/ml BSA and 25 mM HEPES, pH 7.4, for addition to tissue culture wells.
Cell attachment assays were performed as described hereinbefore.

[3] = tested on: dorsal root ganglion neurons; test: Cell attachment assay on immobilized substrata, dorsal root ganglion neurons; format: cell-based, chick; conditions: sensory neurons (cell type implied by context)
Description: as §1, with “Finally, the wells were washed twice with PBS pre-warmed to 37° and adherent cells were fixed in place with 2% paraformaldehyde and 2% glutaraldehyde in PBS.” left out
(§2) Ciliary neurons were selected for initial tests because many of these neurons normally form neuromuscular junctions on striated muscle fibers in vivo [Pilar et al., J. Neurophys. […] To extend these tests, it was determined whether neurons of other types also adhered to the s-laminin fragments. […]

[4] = tested on: tectal neurons; test: Cell attachment assay on immobilized substrata, tectal neurons; format: cell-based, chick; conditions: 2 hr
Description: as §1, with “Finally, the wells were washed twice with PBS pre-warmed to 37° and adherent cells were fixed in place with 2% paraformaldehyde and 2% glutaraldehyde in PBS.” left out
as §2

[5] = tested on: neurons and neuron-like cells; test: Cell attachment assay, each cell type of Table 1; format: cell-based; conditions: for each cell type, Table 1 footnote
Description: as §1
Covault et al., J. Cell Biol. 105, 2479-2488 (1987). […]

## AEKQLR [Peptide M511]
[1]
  Inhibition of neuronal adhesion to pET-RK36 / s-laminin (in words): inhibiting activity is not shown

## AEKQLREQVGD [Peptide M51]
[1]
  IC50: 10 to 20 µM
  IC50 for inhibition of neuronal adhesion to pET-RK36: ~ 20 μg/ml

## AEKQLREQVGDQYQTVRALAE [Peptide M5]
[1]
  IC50: 10 to 20 µM

## KQLREQ [Peptide M512]
[1]
  Inhibition of neuronal adhesion to pET-RK36 / s-laminin (in words): inhibitory

## LREQVG [Peptide M513]
[1]
  Inhibition of neuronal adhesion to pET-RK36 / s-laminin (in words): inhibitory

## laminin
[2]; 2 hour assay, optimal concentration of substrate on nitrocellulose
  Applied ciliary neurons adhered: 30-40%
[2]; 2 hr, laminin 100 μg/ml, pET-RK36 10 μg/ml
  Adhesion of ciliary neurons to substrate (FIG. 3): adhere well
[2]; Mr ~900,000 laminin, ~20,000 s-laminin fragment
  Optimal concentration in molar terms: ~ 0.5 μM
[2]; ciliary neurons
  Concentration of applied solution giving maximal adhesion: ~ 500 μg/ml
  Lowest concentration in solution with significant adhesion: 20 µg/mL
[3]
  Fold more cells adhered to laminin than to s-laminin: at least 10 fold
[4]
  Adhesion of tectal cells to substrate (FIG. 3): adhere well
[5]
  Cells applied that adhered to laminin: 20

## poly-lysine
[2]; ciliary neurons, each stage E8-E13
  More neurons adhered to poly-lysine than to either laminin or s-laminin: 30-50%

## β-galactosidase: pure β-galactosidase
[2]; control for vector-encoded sequences
  Attachment of ciliary neurons to recombinant proteins / bacterial extracts (FIG. 2): no significant attachment
